# Measurements as given in US9718840B2, “Condensed 5-oxazolidinone derivative” (SUMITOMO DAINIPPON PHARMA CO., LTD., priority 2014, dated 2017).
# What was measured:
# Human FXIa = Human FXIa (Homo sapiens, UniProt P03951); test: In vitro activated factor XI (FXIa) inhibition test; type: biochemical
# [1] = test system: Rabbit venous thrombus models; test: In vivo antithrombotic effect evaluation test using rabbit (arteriovenous shunt); details: prompt i.v. + continuous i.v.
# Experimental: (§1) Rabbit venous thrombus models were prepared by a modification of the report of Wong et al. (Wong P C. et al., J. Pharmacol. Exp. Ther. 292: 351-357 (2000)). Male rabbits (JW, 2 to 4 kg) were anesthetized by the inhalation of isoflurane (ISOFLU®, manufactured by DS Pharma Animal Health Co., Ltd.) (introduced anesthesia: 4%, continuous anesthesia: 1.5 to 2.5%). A tracheostomy tube was inserted to each rabbit, which was then ventilated using a respirator. For the intravenous administration of a test drug and blood collection, catheters were inserted to the right femoral vein and the right femoral artery, respectively. An arteriovenous shunt filled with saline was inserted to the carotid artery and the jugular vein. The arteriovenous shunt was prepared by connecting Atom extension tubes (4Fr) having lengths of 15 cm and 13 cm to the artery side and the vein side, respectively, of a polyethylene tube (length: 60 cm, outside diameter: 11.1 mm, inside diameter: 7.9 mm). Also, 4-0 silk thread having a length of 5 cm was indwelled in the arteriovenous shunt. Blood was sent for 30 minutes from the carotid artery to the jugular vein via the arteriovenous shunt. The shunt was removed, and the weight of the silk thread covered with thrombus was measured. The weight of the silk thread measured before the experiment was subtracted from the measured weight, and the obtained value was used as a wet thrombus weight. One hour before the open of the arteriovenous shunt, the test drug or a vehicle was promptly intravenously administered (0.67 mL/kg) and then continuously intravenously administered (1 mL/kg/hr). The continuous injection was continued throughout the experiment. Further, an existing anticoagulant dabigatran (antithrombin drug) and rivaroxaban (FXa inhibitor) were tested as control drugs.
# In order to measure aPTT of blood samples as an index for the intrinsic coagulation pathway, blood was collected before administration and immediately before cessation of blood flow, and plasma was prepared using 3.2% sodium citrate. After incubation at 37° C. for 6 minutes, an STA reagent Cephascreen (for aPTT assay; manufactured by Roche Diagnostics K.K.) was added in an amount equal thereto, and the mixture was further incubated for 4 minutes. STA calcium chloride (manufactured by Roche Diagnostics K.K.) was added in an amount equal thereto, and the time required for coagulation was measured.
# In order to measure prothrombin time (PT) of blood samples as an index for the extrinsic coagulation pathway, blood was collected before administration and immediately before cessation of blood flow, and plasma was prepared using 3.2% sodium citrate. After incubation at 37° C. for 10 minutes, Neoplastin Plus (for PT assay; manufactured by Roche Diagnostics K.K.) was added in a double amount, and the time required for coagulation was measured.
# [2] = test system: Rabbit nail bleeding models; test: Bleeding time evaluation test using rabbit nail bleeding model; type: in vivo; details: for Bleeding time: Experiment 1 (maximum 30 minutes), rabbit; for Bleeding time (fold-increase): Experiment 1, ratio to vehicle group average
# Experimental: Rabbit nail bleeding models were prepared by a modification of the report of Wong et al. (Wong P C. et al., J. Thromb. Haemost. 7: 1313-1320 (2009)). Male rabbits (JW, 1.5 to 3.5 kg) were anesthetized by the inhalation of isoflurane (ISOFLU®, manufactured by DS Pharma Animal Health Co., Ltd.) (introduced anesthesia: 4%, continuous anesthesia: 2 to 3%).
# (§2) For the intravenous administration of a test drug or a vehicle, an indwelling needle was inserted to the auricular vein, and the test drug or the vehicle was promptly intravenously administered (0.67 mL/kg) and then continuously intravenously administered (1 mL/kg/hr). One hour after the start of administration, three posterior toenails were cut and dipped in saline heated to approximately 37° C., and the bleeding time was measured. The bleeding time was defined as a time from the cutting to the arrest of bleeding, and an average value from the three nails was used. The measurement time was 30 minutes at the maximum for experiment 1 and 60 minutes at the maximum for experiment 2. In each experiment, if bleeding for 30 minutes or 60 minutes or longer was confirmed, the bleeding time was regarded as 30 minutes or 60 minutes.
# [3] = test system: Rabbit venous thrombus models; test: Effect of combined use with antiplatelet drug using rabbit AVST model; type: in vivo; details: alone
# Experimental: as §1, with “Male rabbits (JW, 2 to 4 kg) were anesthetized by the inhalation of isoflurane (ISOFLU®, manufactured by DS Pharma Animal Health Co., Ltd.) (introduced anesthesia: 4%, continuous anesthesia: 1.5 to 2.5%).” left out, “The arteriovenous shunt was prepared by connecting Atom extension tubes (4Fr) having lengths of 15 cm and 13 cm to the artery side and the vein side, respectively, of a polyethylene tube (length: 60 cm, outside diameter: 11.1 mm, inside diameter: 7.9 mm).” left out, “[…] STA calcium chloride (manufactured by Roche Diagnostics K.K.) was added in” for “Further,”, “amount equal thereto,” for “existing anticoagulant dabigatran (antithrombin drug)”, “the time required for coagulation was measured.” for “rivaroxaban (FXa inhibitor) were tested as control drugs.”
# [4] = test system: Rabbit nail bleeding models; test: Effect of combined use with antiplatelet drug using rabbit nail bleeding model; type: in vivo; details: alone; for Bleeding time: rabbit, maximum 60 minutes; for Bleeding time (fold-increase): ratio to vehicle group average
# Experimental: as §2, with “Rabbit nail bleeding models were prepared by a modification of the report of Wong et al. (Wong P C. et al., J. Thromb. Haemost. 7: 1313-1320 (2009)). Male rabbits (JW, 1.5 to 3.5 kg) were anesthetized by the inhalation of isoflurane (ISOFLU®, manufactured by DS Pharma Animal Health Co., Ltd.) (introduced anesthesia: 4%, continuous anesthesia: 2 to 3%). For” for “For”, “was” for “was 30 minutes at the maximum for experiment 1 and”, “maximum. If” for “maximum for experiment 2. In each experiment, if”, “for” for “for 30 minutes or”, “as” for “as 30 minutes or”
# [5] = dose 0.03 + 0.045 mg/kg + mg/kg/h
# [6] = dose 0.1 + 0.15 mg/kg + mg/kg/h
# [7] = dose 0.3 + 0.45 mg/kg + mg/kg/h
# [8] = dose 0.03 + 0.045 mg/kg + mg/kg/h i.v.
# [9] = dose 0.1 + 0.15 mg/kg + mg/kg/h i.v.
# [10] = dose 0.3 + 0.45 mg/kg + mg/kg/h i.v.
# Human FXIa, sequence (P03951 388-625 limits assumed): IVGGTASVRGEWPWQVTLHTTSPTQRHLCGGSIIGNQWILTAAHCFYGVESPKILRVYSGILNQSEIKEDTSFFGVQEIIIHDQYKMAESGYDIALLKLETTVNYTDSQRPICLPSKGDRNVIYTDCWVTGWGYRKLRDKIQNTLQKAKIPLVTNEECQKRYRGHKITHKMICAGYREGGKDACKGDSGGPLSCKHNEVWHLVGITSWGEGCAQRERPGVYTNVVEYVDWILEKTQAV
# Human FXIa, sequence (P03951 19-387 partner limits assumed): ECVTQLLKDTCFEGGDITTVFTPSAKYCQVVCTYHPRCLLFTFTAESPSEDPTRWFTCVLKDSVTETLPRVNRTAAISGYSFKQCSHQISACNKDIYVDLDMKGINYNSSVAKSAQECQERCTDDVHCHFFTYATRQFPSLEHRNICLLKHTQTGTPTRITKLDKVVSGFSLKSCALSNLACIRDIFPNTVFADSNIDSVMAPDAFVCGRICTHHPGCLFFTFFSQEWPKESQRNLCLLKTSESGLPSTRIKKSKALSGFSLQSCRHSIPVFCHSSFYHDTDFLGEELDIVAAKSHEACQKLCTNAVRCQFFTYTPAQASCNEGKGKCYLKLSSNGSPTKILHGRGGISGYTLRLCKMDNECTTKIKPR
structure (smiles),measurement,setting,value
N[C@H](CF)[C@H]1CC[C@H](C(=O)N2CC[C@H](c3ccccc3)[C@H]2C(=O)Nc2ccc3[nH]c(C(=O)O)cc3c2)CC1,IC50,Human FXIa,20 nM
N[C@H](CF)[C@H]1CC[C@H](C(=O)N2CC[C@@H](c3ccccc3)[C@H]2C(=O)Nc2ccc3[nH]c(C(=O)O)cc3c2)CC1,IC50,Human FXIa,15 nM
O=C(NC[C@H]1CN(c2ccc(N3CCOCC3=O)cc2)C(=O)O1)c1ccc(Cl)s1 [Rivaroxaban],PT (ratio),[1]; [5],1.23 ± 0.05 ratio
same,Thrombus weight,[1]; [5],92 ± 19 mg
same,aPTT (ratio),[1]; [5],1.22 ± 0.06 ratio
same,PT (ratio),[1]; [6],1.73 ± 0.15 ratio
same,Thrombus weight,[1]; [6],58 ± 9 mg
same,aPTT (ratio),[1]; [6],1.50 ± 0.09 ratio
same,PT (ratio),[1]; [7],2.87 ± 0.33 ratio
same,Thrombus weight,[1]; [7],29 ± 10 mg
same,aPTT (ratio),[1]; [7],1.87 ± 0.14 ratio
same,Bleeding time,[2]; [8],1031 ± 319 s
same,Bleeding time,[2]; [9],1369 ± 334 s
same,Bleeding time,[2]; [10],1733 ± 110 s
same,Bleeding time (fold-increase),[2]; [8],2.3 ± 0.7 fold-increase
same,Bleeding time (fold-increase),[2]; [9],3.0 ± 0.7 fold-increase
same,Bleeding time (fold-increase),[2]; [10],3.8 ± 0.2 fold-increase
same,PT (ratio),[3]; [8],1.23 ± 0.05 ratio
same,Thrombus weight,[3]; [8],92 ± 19 mg
same,aPTT (ratio),[3]; [8],1.22 ± 0.06 ratio
same,PT (ratio),[3]; [9],1.73 ± 0.15 ratio
same,Thrombus weight,[3]; [9],58 ± 9 mg
same,aPTT (ratio),[3]; [9],1.50 ± 0.09 ratio
same,Bleeding time,[4]; [8],1614 ± 869 s
same,Bleeding time,[4]; [9],2445 ± 964 s
same,Bleeding time (fold-increase),[4]; [8],2.8 ± 1.5 fold-increase
same,Bleeding time (fold-increase),[4]; [9],4.2 ± 1.7 fold-increase
N[C@H](CF)[C@H]1CC[C@H](C(=O)N2CC[C@@H](C3CCCCC3)[C@H]2C(=O)Nc2ccc3[nH]c(C(=O)O)nc3c2)CC1,IC50,Human FXIa,34 nM
